Measurements published in US8362011B2, “Tricyclic triazolic compounds” (Laboratories del Dr. Esteve, S.A., priority 2007, dated 2013).
Where “and” joins values, the source holds several entries; their conditions need not be identical. Identical values can stand only once.

What was measured:
σ1-receptor = target: T1, σ1-receptor (Cavia porcellus, UniProt Q60492); assay: σ1-receptor binding assay, [3H]-(+)-pentazocine, guinea pig brain membranes; details: [3H]-(+)-pentazocine 5.0 nM; for % Displacement (10^−6 M): 10^−6 M compound
T1 construct: Guinea pig brains were homogenized in 10 vols; (w/v) of Tris-HCl 50 mM 0.32 M sucrose; from tissue; host or cells: guinea pig brain membranes
T1 sequence (Q60492 whole entry): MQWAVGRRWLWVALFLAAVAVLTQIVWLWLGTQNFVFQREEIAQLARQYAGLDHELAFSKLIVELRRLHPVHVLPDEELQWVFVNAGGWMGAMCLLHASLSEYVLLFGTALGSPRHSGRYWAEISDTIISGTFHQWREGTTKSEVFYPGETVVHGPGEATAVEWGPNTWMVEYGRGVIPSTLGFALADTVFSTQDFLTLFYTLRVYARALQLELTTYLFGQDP
Experimental: Brain membrane preparation and binding assays for the σ1-receptor were performed as described (DeHaven-Hudkins, D. L., L.C. Fleissner, and F. Y. Ford-Rice, 1992, Characterization of the binding of [^3H](+)pentazocine to σ recognition sites in guinea pig brain, Eur. J. Pharmacol. 227, 371-378) with some modifications. Guinea pig brains were homogenized in 10 vols. (w/v) of Tris-HCl 50 mM 0.32 M sucrose, pH 7.4, with a Kinematica Polytron PT 3000 at 15000 r.p.m. for 30 s. The homogenate was centrifuged at 1000 g for 10 min at 4° C. and the supernatants collected and centrifuged again at 48000 g for 15 min at 4° C. The pellet was resuspended in 10 volumes of Tris-HCl buffer (50 mM, pH 7.4), incubated at 37° C. for 30 min, and centrifuged at 48000 g for 20 min at 4° C. Following this, the pellet was re-suspended in fresh Tris-HCl buffer (50 mM, pH 7.4) and stored on ice until use.
The radioligand used was [^3H]-(+)-pentazocine at 5.0 nM and the final volume was 200 μl. The incubation was initiated with the addition of 100 μA of membrane at a final tissue concentration of approximately 5 mg tissue net weight/mL and the incubation time was 150 m. at 37° C. After incubation, the membranes were collected onto pretreated glass fiber filterplate (MultiScreen-FC, Millipore), with polyethylenimine 0.1%. The filters were washed two times with 200 μA of washing buffer (50 mM Tris Cl, pH=7.4) and then 25 μA of Ecoscint H liquid scintillation cocktail were added. Microplates were allowed to set for several hours and then quantified by liquid scintillation spectrophotometry (1450 Microbeta, Wallac). Nonspecific binding was determined with 1 μM haloperidol.

Row | SMILES | Ki (σ1-receptor) | melting point [°C] | % Displacement (10^−6 M) (σ1-receptor) [%]
1 | CCCC(=O)N1C[C@@H]2[C@@H](C1)OCc1c(-c3ccccc3)nnn12 (relative stereo) [Example 29, 1-((5a,8a-trans)-3-phenyl-5a,6,8,8a-tetrahydropyrrolo[3,4-b][1,2,3]triazolo[1,5-d][1,4]oxazin-7(4H)-yl)butan-1-one] | 334 nM and 341 nM | 202 to 204 | –
2 | c1ccc(-c2nnn3c2CO[C@@H]2CNC[C@H]23)cc1 (relative stereo) [Example 13, (5a,8a-trans)-3-phenyl-4,5a,6,7,8,8a-hexahydropyrrolo[3,4-b][1,2,3] triazolo[1,5-d][1,4]oxazine] | 283 nM and 262 nM | 165 to 167 | –
3 | O=C(CCc1ccccc1)N1C[C@@H]2[C@@H](C1)OCc1c(-c3ccccc3)nnn12 (relative stereo) [Example 28, 3-phenyl-1-((5a,8a-trans)-3-phenyl-5a,6,8,8a-tetrahydropyrrolo[3,4-b][1,2,3]triazolo[1,5-d][1,4]oxazin-7(4H)-yl)propan-1-one] | 563 nM | 205 to 206 | –
4 | CCCCCN1C[C@@H]2[C@@H](C1)OCc1c(-c3ccccc3)nnn12 (relative stereo) [Example 41, (5a,8a-trans)-7-pentyl-3-phenyl-4,5a,6,7,8,8a-hexahydropyrrolo[3,4-b][1,2,3]triazolo[1,5-d][1,4]oxazine] | 5.47 nM and 6.79 nM | – | –
5 | Clc1ccc(-c2nnn3c2CO[C@@H]2CN(Cc4ccccc4)C[C@H]23)cc1 (relative stereo) [Example 9, (5a,8a-trans)-7-benzyl-3-(4-chlorophenyl)-4,5a,6,7,8,8a-hexahydro pyrrolo[3,4-b][1,2,3]triazolo[1,5-d][1,4]oxazine] | – | 197 to 198 | 87
6 | FC(F)(F)c1ccc(-c2nnn3c2CO[C@@H]2CN(Cc4ccccc4)C[C@H]23)cc1 (relative stereo) [Example 6, (5a,8a-trans)-7-benzyl-3-(4-(trifluoromethyl)phenyl)-4,5a,6,7,8,8a-hexa hydropyrrolo[3,4-b][1,2,3]triazolo[1,5-d][1,4]oxazine] | 31.3 ± 8.7 nM | 137 to 138 | –

The remaining lines, values ahead:

Row | Ki (σ1-receptor) | melting point [°C] | % Displacement (10^−6 M) (σ1-receptor) [%] | SMILES
7 | 375 ± 1.6 nM | 106 to 107 | – | CCc1nnn2c1CO[C@@H]1CN(Cc3ccccc3)C[C@H]12 (relative stereo) [Example 8, (5a,8a-trans)-7-benzyl-3-ethyl-4,5a,6,7,8,8a-hexahydropyrrolo[3,4-b][1,2,3]triazolo[1,5-d][1,4]oxazine]
8 | 298 ± 76.2 nM | – | – | CCc1nnn2c1CO[C@@H]1CN(Cc3ccc(OC)cc3)C[C@H]12 (relative stereo) [Example 3, (5a,8a-trans)-3-ethyl-7-(4-methoxybenzyl)-4,5a,6,7,8,8a-hexahydro pyrrolo[3,4-b][1,2,3]triazolo[1,5-d][1,4]oxazine]
9 | – | 101 to 102 | <50 | c1ccc(CN2C[C@@H]3[C@@H](C2)OCc2cnnn23)cc1 (relative stereo) [Example 4, (5a,8a-trans)-7-benzyl-4,5a,6,7,8,8a-hexahydropyrrolo[3,4-b][1,2,3] triazolo[1,5-d][1,4]oxazine]
10 | 26.9 ± 4.4 nM | 154 to 155 | – | c1ccc(CN2C[C@@H]3[C@@H](C2)OCc2c(-c4ccccc4)nnn23)cc1 (relative stereo) [Example 11, (5a,8a-trans)-7-benzyl-3-phenyl-4,5a,6,7,8,8a-hexahydropyrrolo[3,4-b][1,2,3]triazolo[1,5-d][1,4]oxazine]
11 | > 1000 nM | 103 to 104 | – | Cc1nnn2c1CO[C@@H]1CN(Cc3ccccc3)C[C@H]12 (relative stereo) [Example 5, (5a,8a-trans)-7-benzyl-3-methyl-4,5a,6,7,8,8a-hexahydropyrrolo[3,4-b][1,2,3]triazolo[1,5-d][1,4]oxazine]
